# Laboratory results as given in ChEMBL document CHEMBL5678811 (Invest New Drugs, 2014).
# Active and inactive are the calls of the source. The rule behind the calls is not given here.
# What was measured:
# COLO 205 [1] = conditions: Mus musculus, CD1, dose 50.0 mg/kg, route po
# [2] = Toxicity in human Calu-6 cells xenografted CD1 nu/nu mouse assessed as body weight loss at 50 mg/kg, po administered once daily via gavage for 12 days followed by gemcitabine addition for 4 days and measured twice per week during compound dosing; assay type: organism-based; conditions: in vivo, 384 h, time 16 day
# MV4-11 [3] = test: Cell cycle arrest in human MV4-11 cells assessed as accumulation of cells at G2/M-phase at 2.5 uM measured after 24 hrs by propidium iodide staining based flow cytometry (reference value: 15.23%); assay type: functional
# COLO 205 [4] = conditions: Mus musculus, CD1, dose 25-50 mg/kg, route po
# [5] = molecular target: Cyclin-dependent kinase 5/CDK5 activator 1 (Homo sapiens) (UniProt Q00535+Q15078); conditions: Sf21, dose 200.0 nM
# Cyclin-dependent kinase 5/CDK5 activator 1 (Homo sapiens), sequence (Q00535 whole entry): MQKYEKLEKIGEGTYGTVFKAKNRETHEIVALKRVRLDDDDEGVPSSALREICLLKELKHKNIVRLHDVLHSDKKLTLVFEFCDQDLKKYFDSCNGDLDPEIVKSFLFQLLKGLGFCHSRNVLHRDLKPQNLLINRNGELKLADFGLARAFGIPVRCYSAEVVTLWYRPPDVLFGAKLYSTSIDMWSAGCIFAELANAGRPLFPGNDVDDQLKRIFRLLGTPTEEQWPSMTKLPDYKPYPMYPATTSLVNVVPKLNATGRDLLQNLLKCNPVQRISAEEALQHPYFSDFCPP
# Cyclin-dependent kinase 5/CDK5 activator 1 (Homo sapiens), sequence (Q15078 99-307 partner limits assumed): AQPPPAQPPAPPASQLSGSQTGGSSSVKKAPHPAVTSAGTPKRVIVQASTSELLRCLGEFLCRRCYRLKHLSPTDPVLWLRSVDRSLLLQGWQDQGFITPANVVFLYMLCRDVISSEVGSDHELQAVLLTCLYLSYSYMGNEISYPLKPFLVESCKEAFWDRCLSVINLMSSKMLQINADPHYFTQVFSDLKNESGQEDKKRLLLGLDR
# Description: Inhibition of recombinant human full-length N-terminal His6-tagged cdk5/N-terminal GST-tagged p35 expressed in baculovirus infected Sf21 cells at 200 nM using histone H1 as substrate relative to control
# COLO 205 [6] = conditions: Mus musculus, CD1, dose 100.0 mg/kg, route po, time 21.0 day
# [7] = Toxicity in human COLO 205 cells xenografted CD1 nu/nu mouse assessed as change in ileum histology at 50 mg/kg, po administered daily via gavage for 2 cycles of 3 weeks on/1 week rest and measured on day 41 to 69 by histopathological analysis; assay type: organism-based; conditions: in vivo, time 41-69 day
# Mus musculus [8] = species on record: Mus musculus; conditions: CD1, dose 50.0 mg/kg, route po, time 22.0 day
# MV4-11 [9] = test: Cell cycle arrest in human MV4-11 cells assessed as accumulation of cells at G1-phase at 0.16 uM measured after 24 hrs by propidium iodide staining based flow cytometry (reference value: 61.42%); assay type: functional
# [10] = molecular target: Glycogen synthase kinase-3 beta (Homo sapiens) (UniProt P49841); conditions: dose 200.0 nM
# Glycogen synthase kinase-3 beta (Homo sapiens), sequence (P49841 whole entry, looked up): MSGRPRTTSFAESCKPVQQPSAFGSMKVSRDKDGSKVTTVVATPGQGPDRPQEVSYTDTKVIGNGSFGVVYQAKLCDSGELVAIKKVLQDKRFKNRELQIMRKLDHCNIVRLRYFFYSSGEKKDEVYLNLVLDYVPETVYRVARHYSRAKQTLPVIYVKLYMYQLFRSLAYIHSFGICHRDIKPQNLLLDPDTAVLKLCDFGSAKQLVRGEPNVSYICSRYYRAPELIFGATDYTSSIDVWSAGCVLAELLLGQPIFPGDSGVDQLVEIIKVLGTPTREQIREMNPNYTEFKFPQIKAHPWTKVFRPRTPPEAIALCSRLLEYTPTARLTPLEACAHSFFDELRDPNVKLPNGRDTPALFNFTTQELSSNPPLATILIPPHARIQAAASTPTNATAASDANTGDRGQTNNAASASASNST
# Description: Inhibition of human GSK3beta relative to control
# Mus musculus [11] = species on record: Mus musculus; conditions: CD1, dose 50.0 mg/kg, route po, time 22.0 day; remark: listed apart in the source
# [12] = Toxicity in human COLO 205 cells xenografted CD1 nu/nu mouse at 25 to 100 mg/kg, po administered once daily via gavage for 21 days; assay type: organism-based; conditions: in vivo, dose 25-100 mg/kg, time 21 day
# [13] = molecular target: High affinity nerve growth factor receptor (Homo sapiens) (UniProt P04629); conditions: Sf21, dose 200.0 nM
# High affinity nerve growth factor receptor (Homo sapiens), sequence (P04629 33-796 limits assumed): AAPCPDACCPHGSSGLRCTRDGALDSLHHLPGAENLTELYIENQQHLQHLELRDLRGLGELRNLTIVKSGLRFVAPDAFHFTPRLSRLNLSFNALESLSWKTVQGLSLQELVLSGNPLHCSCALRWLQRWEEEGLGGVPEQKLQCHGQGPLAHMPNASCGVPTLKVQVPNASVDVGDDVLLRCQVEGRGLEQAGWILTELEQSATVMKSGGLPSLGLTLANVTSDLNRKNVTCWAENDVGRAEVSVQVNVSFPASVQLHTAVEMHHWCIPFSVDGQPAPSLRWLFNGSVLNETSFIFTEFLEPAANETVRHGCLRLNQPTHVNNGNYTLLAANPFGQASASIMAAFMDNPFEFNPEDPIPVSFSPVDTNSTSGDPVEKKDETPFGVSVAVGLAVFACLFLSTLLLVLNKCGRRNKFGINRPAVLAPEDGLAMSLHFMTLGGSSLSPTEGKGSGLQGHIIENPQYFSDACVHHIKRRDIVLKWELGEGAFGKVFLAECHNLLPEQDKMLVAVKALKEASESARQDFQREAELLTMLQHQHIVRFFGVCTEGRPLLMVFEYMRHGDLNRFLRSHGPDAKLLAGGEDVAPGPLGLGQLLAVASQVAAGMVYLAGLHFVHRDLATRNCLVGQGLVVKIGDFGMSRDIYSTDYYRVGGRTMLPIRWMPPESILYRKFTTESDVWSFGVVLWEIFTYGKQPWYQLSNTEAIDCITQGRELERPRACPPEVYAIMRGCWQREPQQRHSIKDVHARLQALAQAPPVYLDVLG
# [14] = Toxicity in human COLO 205 cells xenografted CD1 nu/nu mouse assessed as body weight loss at 25 to 100 mg/kg, po administered once daily via gavage for 21 days measured twice per week during compound dosing; assay type: organism-based; conditions: in vivo, dose 25-100 mg/kg, time 21 day
structure (smiles),measurement,setting,value
CCN1CCN(Cc2ccc(Nc3ncc(F)c(-c4cc(F)c5nc(C)n(C(C)C)c5c4)n3)nc2)CC1 [ABEMACICLIB],inhibition,COLO 205 [1],Active
same,Activity,[2],Non-Toxic
same,Activity,MV4-11 [3],2.96%
same,inhibition,COLO 205 [4],Dose-Dependent Effect
same,inhibition,[5],> 90%
same,inhibition,COLO 205 [6],Active
same,Activity,[7],Non-Toxic
same,inhibition,Mus musculus [8],inactive
same,Activity,MV4-11 [9],92.68%
same,inhibition,[10],> 90%
same,inhibition,Mus musculus [11],inactive
same,Activity,[12],Non-Toxic
same,inhibition,[13],> 90%
same,Activity,[14],Non-Toxic
